Patent publication US5244898A, “Benzoheterocyclic compounds” (Otsuka Pharmaceutical Co., Ltd., priority 1991, dated 1993)
Counter-ions that a name gives are not always drawn.

Tests used:
V2 Receptor = target: T1, V2 Receptor (Rattus norvegicus, UniProt Q00788); test: V2 Receptor Binding Assay ([3H]-Arg-vasopressin, rat kidney plasma membrane); conditions: 4° C., pH 8.0
T1 construct: rat kidney plasma membrane preparations; from tissue; host or cells: rat kidney plasma membranes
Description: Chem., 253, 3211 (1978)], the plasma membrane (100000 dpm, 4×10^-10M) of [^3 H]-Arg-vasopressin and a test compound (0.6 mg, 10^-10 -10^-5 M) are incubated at 4° C. for 3 hours in 100 mM Tris-HCl buffer pH: 8.0 (250 μl ) containing 5 mM MgCl2, 1 mM EDTA and 0.1 % BSA. After incubation, the mixture is filtered using the glass filter (GF/F) so as to separate the membrane preparation combining with vasopressin and then washed twice with the buffer (5 ml). This glass filter is taken out and mixed with liquid scintillation cocktail. The amount of [^3 H]-vasopressin combining with the membrane is measured by liquid scintillation counter and the rate of the inhibitory effect of the test compound is estimated according to the following equation. [formula]
(§1) C1 : The amount of [^3 H]-vasopressin combining with the membrane in the presence of the test compound of a known amount.
(§2) C0 : The amount of [^3 H]-vasopressin combining with the membrane in the absence of the test compound.
B1 : The amount of [3H-vasopressin combining with the membrane in the presence of the excess amount of vasopressin (10^-6 M).
(§3) The results are expressed as IC50 value, which is the concentration of the test compound required to achieve the inhibitory effect in the rate of 50%.

V1 Receptor = V1 Receptor (Rattus norvegicus, UniProt P30560); test: V1 Receptor Binding Assay ([3H]-Arg-vasopressin, rat liver plasma membrane); conditions: 37° C., 10 minutes, pH 8.0
V1 Receptor, sequence (P30560 whole entry): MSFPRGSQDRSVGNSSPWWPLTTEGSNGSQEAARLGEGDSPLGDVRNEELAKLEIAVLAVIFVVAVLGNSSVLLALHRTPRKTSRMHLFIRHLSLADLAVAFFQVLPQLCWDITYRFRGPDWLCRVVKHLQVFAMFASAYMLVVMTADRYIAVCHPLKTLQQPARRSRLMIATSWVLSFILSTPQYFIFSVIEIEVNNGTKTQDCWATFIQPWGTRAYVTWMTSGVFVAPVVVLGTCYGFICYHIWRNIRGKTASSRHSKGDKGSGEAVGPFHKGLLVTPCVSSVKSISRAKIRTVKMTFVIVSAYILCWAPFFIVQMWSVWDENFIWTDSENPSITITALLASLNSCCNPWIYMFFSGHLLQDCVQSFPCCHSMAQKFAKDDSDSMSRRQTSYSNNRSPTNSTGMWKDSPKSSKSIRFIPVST
Description: After incubation, the mixture is filtered three times using the glass filter (GF/F) so as to separate the membrane preparation combining with vasopressin and then washed with the buffer (5 ml). This glass filter is taken out and mixed with liquid scintillation cocktail. The amount of [^3 H]-vasopressin combining with the membrane is measured by liquid scintillation counter and the rate of the inhibitory effect of the test compound is estimated according to the following equation.
as §1, §2
B1 : The amount of [^3 H]-vasopressin combining with the membrane in the presence of the excess amount of vasopressin (10^-6 M).
as §3

T1 sequence (Q00788 whole entry): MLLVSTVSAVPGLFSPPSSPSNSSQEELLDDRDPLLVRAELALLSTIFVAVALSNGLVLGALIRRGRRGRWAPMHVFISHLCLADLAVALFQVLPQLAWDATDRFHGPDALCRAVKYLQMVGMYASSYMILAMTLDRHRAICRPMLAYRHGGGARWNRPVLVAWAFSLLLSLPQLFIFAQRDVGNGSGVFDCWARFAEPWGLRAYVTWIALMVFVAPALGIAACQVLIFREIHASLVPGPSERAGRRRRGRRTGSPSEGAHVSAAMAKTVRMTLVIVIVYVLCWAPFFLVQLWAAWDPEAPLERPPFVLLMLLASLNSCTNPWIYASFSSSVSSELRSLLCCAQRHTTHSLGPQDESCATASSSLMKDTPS

SMILES | IC50 (V2 Receptor) [nM] | IC50 (V1 Receptor) [nM]
COc1cc(NC(=O)c2ccccc2C)ccc1C(=O)N1CCCC(OCCN2CCN(C)CC2)c2cc(F)ccc21 (stereo not drawn) [Test Compound 47, 5-[2-(4-Methyl-1-piperazinyl)ethoxy]-7-fluoro-1-[2-methoxy-4-(2-methylbenzoylamino)benzoyl]-2,3,4,5-tetrahydro-1H-benzazepine] | 8 | 330
COc1cc(NC(=O)c2ccccc2C)ccc1C(=O)N1CCCC(OCCN2CCCC2)c2cc(Cl)ccc21 (stereo not drawn) [Test Compound 34, 5-[2-(1-Pyrrolidinyl)ethoxy]-7-chloro-1-[2-methoxy-4-(2-methylbenzoylamino)benzoyl]-2,3,4,5-tetrahydro-1H-benzazepine hydrochloride] | 6 | 9
COc1cc(NC(=O)c2ccccc2Cl)ccc1C(=O)N1CCCC(CC(=O)N2CCC(N(C)C)CC2)c2cc(Cl)ccc21 (stereo not drawn) [Test Compound 45, 5-[(4-Dimethylamino-1-piperidinyl)carbonylmethyl]-7-chloro-1-[2-methoxy-4-(2-chlorobenzoylamino)benzoyl]-2,3,4,5-tetrahydro-1H-benzazepine hydrochloride] | 4 | 8
Cc1ccccc1C(=O)Nc1ccc(C(=O)N2CCCC(OCC(=O)NCC(=O)O)c3cc(F)ccc32)c(Cl)c1 (stereo not drawn) [Test Compound 22, 5-Carboxymethylaminocarbonylmethoxy-7-fluoro-1-[2-chloro-4-(2-methylbenzoylamino)benzoyl]-2,3,4,5-tetrahydro-1H-benzazepine] | 18 | –
O=C(Nc1ccc(C(=O)N2CCCC(O)(CO)c3cc(O)ccc32)c(Cl)c1)c1ccccc1Cl (stereo not drawn) [Test Compound 19, 5,7-Dihydroxy-5-hydroxymethyl-1-[2-chloro-4-(2-chlorobenzoylamino)benzoyl]-2,3,4,5-tetrahydro-1H-benzazepine] | 2800 | –
Cc1ccccc1C(=O)Nc1ccc(C(=O)N2CCCC(CC(=O)NCC(N)=O)c3cc(Cl)ccc32)c(C)c1 (stereo not drawn) [Test Compound 62, 5-(Carbamoylmethylaminocarbonylmethyl)-7-chloro-1-[2-methyl-4-(2-methylbenzoylamino)benzoyl]-2,3,4,5-tetrahydro-1H-benzazepine] | 3 | –
CC(=O)N1CCN(CCC2CCCN(C(=O)c3ccc(NC(=O)c4ccccc4C)cc3C)c3ccc(Cl)cc32)CC1 (stereo not drawn) [Test Compound 53, 5-[2-(1-Acetyl-1-piperazinyl)ethyl]-7-chloro-1-[2-methyl-4-(2-methylbenzoylamino)benzoyl]-2,3,4,5-tetrahydro-1H-benzazepine hydrochloride] | 29 | –
COc1cc(C(=O)N2CCCC(CC(=O)N3CCN(C)CC3)c3cc(Cl)ccc32)ccc1NC(=O)c1ccccc1C (stereo not drawn) [Test Compound 27, 5-[(4-Methyl-1-piperazinyl)carbonylmethyl]-7-chloro-1-[3-methoxy-4-(2-methylbenzoylamino)benzoyl]-2,3,4,5-tetrahydro-1H-benzazepine] | 7 | 34
CN(C)C1CCCN(C(=O)c2ccc(NC(=O)Cc3ccccc3[N+](=O)[O-])cc2)c2ccccc21 (stereo not drawn) [Test Compound 7, 5-Dimethylamino-1-{4-[2-(2-nitrophenyl)acetylamino]benzoyl}-2,3,4,5-tetrahydro-1H-benzazepine] | 140 | –
CCOC(=O)CC1CCCN(C(=O)c2ccc(NC(=O)c3ccccc3C)cc2OC)c2ccc(Cl)cc21 (stereo not drawn) [Test Compound 26, 5-Ethoxycarbonylmethyl-7-chloro-1-[2-methoxy-4-(2-methylbenzoylamino)benzoyl]-2,3,4,5-tetrahydro-1H-benzazepine] | 9 | 77
COc1cc(NC(=O)Cc2ccccc2C)ccc1C(=O)N1CCCC(O)c2cc(Cl)ccc21 (stereo not drawn) [Test Compound 18, 5-Hydroxy-7-chloro-1-{2-methoxy-4-[2-(2-methylphenyl)acetylamino]benzoyl}-2,3,4,5-tetrahydro-1H-benzazepine] | 4 | 55
CC(=O)Oc1ccc2c(c1)C(N(C)C)CCCN2C(=O)c1ccc(NC(=O)c2ccccc2Cl)cc1Cl (stereo not drawn) [Test Compound 11] | 110 | –
CSCC[C@H](N)C(=O)OC1CCCN(C(=O)c2ccc(NC(=O)c3ccccc3C)cc2Cl)c2ccccc21 (single isomer, unassigned) [Test Compound 10, 5-(L-Methionyloxy)-1-[2-chloro-4-(2-methylbenzoylamino)benzoyl]-2,3,4,5-tetrahydro-1H-benzazepine hydrochloride] | 83 | –
COC(=O)[C@@H]1CCCN1C(=O)COC1CCCN(C(=O)c2ccc(NC(=O)c3ccccc3C)cc2Cl)c2ccc(F)cc21 (stereo partly drawn) [Test Compound 23, 5-[(2-β-Methoxycarbonyl)-1-pyrrolidinylcarbonylmethoxy]-7-fluoro-1-[2-chloro-4-(2-methylbenzoylamino)benzoyl]-2,3,4,5-tetrahydro-1H-benzazepine] | 11 | –
COc1cc(NC(=O)c2ccccc2OCCCCN2CCN(C(C)=O)CC2)ccc1C(=O)N1CCCCc2cc(Cl)ccc21 [Test Compound 49] | 52 | –
Cc1ccccc1C(=O)Nc1ccc(C(=O)N2CCCC(OCC(=O)NC3CCNCC3)c3cc(Cl)ccc32)c(C)c1 (stereo not drawn) [Test Compound 57, 7-Chloro-5-[(4-piperidinyl)aminocarbonylmethoxy]-1-[2-methyl-4-(2-methylbenzoylamino)benzoyl]-2,3,4,5-tetrahydro-1H-benzazepine hydrochloride] | 9 | –
Cc1ccccc1C(=O)Nc1ccc(C(=O)N2CCCC(OCCCN3CCOCC3)c3cc(F)ccc32)c(C)c1 (stereo not drawn) [Test Compound 35, 5-(3-Morpholinopropoxy)-7-fluoro-1-[2-methyl-4-(2-methylbenzoylamino)benzoyl]-2,3,4,5-tetrahydro-1H-benzazepine] | 6.2 | –
COc1cc(C(=O)N2CCCCc3cc(Cl)ccc32)ccc1NC(=O)c1ccccc1OCCCCN1CCN(C(C)=O)CC1 [Test Compound 56, 7-Chloro-1-[3-methoxy-4-{2-[4-(4-acetyl-1-piperazinyl)butoxy]benzoylamino}benzoyl]-2,3,4,5-tetrahydro-1H-benzazepine] | – | 7
COc1cc(NC(=O)c2ccccc2Cl)ccc1C(=O)N1CCCC(CC(=O)O)c2cc(Cl)ccc21 (stereo not drawn) [Test Compound 31, 5-Carboxymethyl-7-chloro-1-[2-methoxy-4-(2-chlorobenzoylamino)benzoyl]-2,3,4,5-tetrahydro-1H-benzazepine] | 19 | –
Cc1ccccc1C(=O)Nc1ccc(C(=O)N2CCCC(OCCCn3ccnc3)c3cc(F)ccc32)c(C)c1 (stereo not drawn) [Test Compound 36, 5-[3-(1-Imidazolyl)propoxy]-7-fluoro-1-[2-methyl-4-(2-methylbenzoylamino)benzoyl]-2,3,4,5-tetrahydro-1H-benzazepine] | 7.6 | –
CN(C)C1CCCN(C(=O)c2ccc(NC(=O)Cc3ccccc3F)cc2)c2ccccc21 (stereo not drawn) [Test Compound 5, 5-Dimethylamino-1-{4-[2-(2-fluorophenyl)acetylamino]benzoyl}-2,3,4,5-tetrahydro-1H-benzazepine] | 59 | –
COc1ccccc1CC(=O)Nc1ccc(C(=O)N2CCCC(N(C)C)c3ccccc32)cc1 (stereo not drawn) [Test Compound 4, 5-Dimethylamino-1-{4-[2-(2-methoxyphenyl)acetylamino]benzoyl}-2,3,4,5-tetrahydro-1H-benzazepine] | 61 | –
CN(C)C1CCCN(C(=O)c2ccc(NC(=O)Cc3ccccc3Cl)cc2)c2ccccc21 (stereo not drawn) [Test Compound 3, 5-Dimethylamino-1-{4-[2-(2-chlorophenyl)acetylamino]benzoyl}-2,3,4,5-tetrahydro-1H-benzazepine] | 61 | –
Cc1ccccc1C(=O)Nc1ccc(C(=O)N2CCCC(OCC(=O)NC3CCN(C)CC3)c3cc(Cl)ccc32)c(C)c1 (stereo not drawn) [Test Compound 59, 5-[(1-Methyl-4-piperidinyl)aminocarbonyl-methoxy]-7-chloro-1-[2-methyl-4-(2-methylbenzoylamino)-benzoyl]-2,3,4,5-tetrahydro-1H-benzazepine] | 9 | –
Cc1ccccc1C(=O)Nc1ccc(C(=O)N2CCCC(OC(=O)[C@@H]3CCCN3)c3ccccc32)c(Cl)c1 (single isomer, unassigned) [Test Compound 12, 5-(L-Prolyloxy)-1-[2-chloro-4-(2-methylbenzoylamino)benzoyl]-2,3,4,5-tetrahydro-1H-benzazepine hydrochloride] | 9 | –
Cc1ccccc1C(=O)Nc1ccc(C(=O)N2CCCC(CC(=O)N3CCN(C)CC3)c3cc(Cl)ccc32)c(C)c1 (stereo not drawn) [Test Compound 41, 5-[(4-Methyl-1-piperazinyl)carbonylmethyl]-7-chloro-1-[2-methyl-4-(2-methylbenzoylamino]benzoyl]-2,3,4,5-tetrahydro-1H-benzazepine] | 13 | –
Cc1ccccc1C(=O)Nc1ccc(C(=O)N2CCCC(OC(=O)[C@H](C)N)c3ccccc32)c(Cl)c1 (stereo partly drawn) [Test Compound 9, 5-(L-Alanyloxy)-1-[2-chloro-4-(2-methylbenzoylamino)benzoyl]-2,3,4,5-tetrahydro-1H-benzazepine hydrochloride] | 17 | –
CN(C)C1CCCN(C(=O)c2ccc(NC(=O)c3ccccc3Cl)cc2Cl)c2ccc(O)cc21 (stereo not drawn) [Test Compound 8, 5-Dimethylamino-7-hydroxy-1-[2-chloro-4-(2-chlorobenzoylamino)benzoyl]-2,3,4,5-tetrahydro-1H-benzazepine] | 250 | –
CN(C)C(=O)COc1ccc2c(c1)C(N(C)C)CCCN2C(=O)c1ccc(NC(=O)c2ccccc2Cl)cc1Cl (stereo not drawn) [Test Compound 20, 5-Dimethylamino-7-dimethylaminocarbonylmethoxy-1-[2-chloro-4-(2-chlorobenzoylamino)benzoyl]-2,3,4,5 tetrahydro-1H-benzazepine] | 5600 | –
CCOC(=O)CNC(=O)COC1CCCN(C(=O)c2ccc(NC(=O)c3ccccc3C)cc2Cl)c2ccc(F)cc21 (stereo not drawn) [Test Compound 21, 5-Ethoxycarbonylmethylaminocarbonylmethoxy-7-fluoro-1-[2-chloro-4-(2-methylbenzoylamino)benzoyl]-2,3,4,5-tetrahydro-1H-benzazepine] | 6 | –
